Data reported in patent publication US20080312162A1, “Methods and Compositions for Enzyme-Specific Activation of Carbohydrate-Conjugated Prodrugs” (THE OHIO STATE UNIVERSITY, priority 2004, published 2008).
Where “and” joins values, the source holds several entries; their conditions need not be identical. Equal entries are not always repeated. Entries after “also recorded” stand apart in the source; their conditions may differ.

Key:
Assay type in all cases: cell-based, human
[1] = system: K562; assay: Beta-glucosidase inhibition assay (DMDP) in K562 cell line; conditions: for Cell growth relative to untreated cells: higher concentration (0.4 μM)
Description: Similar results showing preferential activation of glucose conjugates relative to galactose or lactose conjugates were obtained in other cancer cell lines. The glucose-conjugated compound is apparently cleaved by native glucosidase inside of the cancer cells resulting in release of a biologically active anti-cytostatic compound. The cleavage of glucose conjugates by an enzymatic pathway to release an active drug is shown by a beta-glucosidase inhibition assay. FIG. 5 is a graph showing the results of a beta-glucosidase inhibition assay studied in K562 cell line. Two different concentrations of prodrug were tested in this experiment. For compound 24, 17-demethoxy-17-[(2-β-glucopyranosylethyl)amino]geldanamycin], the higher concentration is 0.4 μM and the lower concentration is 0.2 μM. […] Percentages of cell growth were calculated compared to control cells in the absence of beta-glucosidase inhibitor and prodrug solution. Each bar represents the average of three experiments. […] While the higher concentration of compound 24 limits cells growth to about 20% of untreated cells, when the beta-glucosidase inhibitor DMDP is added, the high concentration of compound 24 only reduces growth to about 60% that of untreated cells.
Beta-glucosidase Inhibition assay. To verify if the cleavage of sugar moieties from compound 24 is crucial for the anticancer activity, we performed the β-glucosidase inhibition study in K562 cell line. The K562 cells were treated with β-glucosidase inhibitor 2, 5-dihydroxymethyl-3,4-dihydroxypyrrolidine (DMDP) solution (100 μM) for 10 minutes before adding carbohydrate-geldanamycin conjugates. The concentrations of glucose-GA were 0.4 μM and 0.2 μM, respectively. […] From the structures of compounds 24 and 25, the only difference between these two compounds is the sugar moiety, which is glucose in compound 24 and galactose in compound 25.
Beta-Glucosidase inhibition assay for compound 2425. […] The exponentially growing cancer cells were incubated in three different conditions (cells with different concentration of test compounds and DMDP, cells with different concentration of test compounds only, and cell with DMDP only) for 72 hours at 37° C. (5% CO2, 100% humidity). The control cells were exposed to fresh medium only. Then, the anticancer activities of compound 24, 25 were measured with MTS assay as described above. The percentages of cell growth for tested compounds vs. control cells were calculated by the absorbance at 490 nm.

[2] = system: SW620; assay: Anticancer activity (MTS assay) in SW620 cells
Experimental: (§1) The anticancer activities of six prodrug conjugates synthesized by the method were tested for anticytostatic activity by using the MTS assay to show suppression of cell growth. Four different human cell lines, including colorectal carcinoma cells (SW620, HT 29), breast cancer cells (MCF7), and leukemia cells (K562), were tested using the MTS assay. Each compound was tested at concentration 1-25,000 nM. GA also was tested for comparison. The inhibition of cell growth was calculated compared to control cells without drug treatment. For purposes of this description of in vitro cell culture testing, drug concentrations are given for the molar concentrations of the chemotherapeutic agents present in the media at the initiation of the test. Skilled artisans are aware of the various conversion factors necessary to convert media concentrations to tissue concentration targets and the dose necessary to achieve such a dose.
(§2) Cell Culture. Cell lines SW620, HT29, MCF7, and K562 were cultured in RPMI 1640 (Invitrogen, Carlsbad, Calif., USA) supplemented with 10% fetal bovine serum (FBS), 1% non-essential amino acid and Penicillin (100 u/mL) Streptomycin (100 ug/mL) in a humidified atmosphere of 5% CO2 and 95% air at 37° C. The culture mediums were changed every 2-3 days.
(§3) Anticancer activity of compound (24-29) (MTS assay). Cells (2,000-10,000) were seeded in 96 well plates in RPMI-1640 and incubated for 24 hours. The exponentially growing cancer cells were incubated with various concentrations of compounds for 72 hours at 37° C. (5% CO2, 95% humidity).

[3] = system: HT29; assay: Anticancer activity (MTS assay) in HT29 cells
Experimental: as §1, §2, §3

[4] = system: MCF7; assay: Anticancer activity (MTS assay) in MCF7 cells; conditions: 72 hours
Experimental: as §1, §2, §3

[5] = system: K562; assay: Anticancer activity (MTS assay) in K562 cells; conditions: 72 hours
Experimental: as §1, §2, §3

[6] = system: various cancer cells; assay: Anticancer activity (MTS assay), pooled statements on various cancer cells; conditions: no added enzyme
Experimental: as §1, §3

[7] = system: SW620, HT29 and K562; assay: Beta-galactosidase cleavage assay; conditions: 2 units beta-galactosidase
Experimental: Thus, galactose-GA and lactose-GA conjugates were exposed to beta-galactosidase and observed for enhancement of anticancer activities. […] For compounds 25-29, 1 μM concentration of prodrug compounds were used. GA (0.01 μM), compound 24 (0.1 μM) and beta-galactosidase (2 units) was used in the cell culture. Each bar in the graphs shown is the average of three experiments. Relative percentage of cell growth was calculated compared to control cells in the absence of beta-galactosidase and drug solution. Cell lines SW620, HT29 and K562 were exposed to 2 units of beta-galactosidase and then treated individually with 1 μM of compounds 25-29. At this concentration, galactose-geldanamycin conjugates alone were relatively devoid of anticancer activity.
Beta-galactosidase cleavage assay. Cells (2,000-10,000) were seeded in 96 well plates in RPMI-1640 and incubated for 24 hours. The exponentially growing cancer cells were incubated with 2 units of beta-galactosidase for 10 minutes. The same concentration solutions of various compounds (25-29) were added to each well. The control cells were exposed to fresh medium only or to beta-galactosidase alone. After incubated for 72 hours at 37° C. (5% CO2, 100% humidity), the cell growth was measured with MTS assay as described above. The percentages of cell growth of tested compounds vs. control were calculated by measuring the absorbance at 490 nm.

## OCC1NC(CO)C(O)C1O (centres unmarked) [DMDP, 2,5-dihydroxymethyl-3,4-dihydroxypyrrolidine, reference compound]
[1]; DMDP alone
  Effect on cell growth: did not have any effect on cell growth

## COC1=C2C[C@@H](C)C[C@H](OC)[C@H](O)[C@@H](C)/C=C(\C)[C@H](OC(N)=O)[C@@H](OC)/C=C\C=C(/C)C(=O)NC(=CC1=O)C2=O [GA, Geldanamycin, reference compound]
[2]; Homo sapiens, SW-620, 72 hours
  IC50: 6.2 nM
[3]; Homo sapiens, HT-29, 72 hours
  IC50: 24.5 nM
[4]; Homo sapiens
  IC50: 6.5 nM
[5]; Homo sapiens
  IC50: 22.1 nM

## COC1C=CC=C(C)C(=O)NC2=CC(=O)C(NCCOC3OC(CO)C(O)C(O)C3O)=C(CC(C)CC(OC)C(O)C(C)C=C(C)C1OC(N)=O)C2=O (stereo not drawn) [compound 24, 17-demethoxy-17-[(2-β-glucopyranosylethyl)amino]geldanamycin]
[2]; 72 hours
  IC50: 70 nM and 70.2 nM
[3]; 72 hours
  IC50: 105 nM
[4]
  IC50: 754 nM
[5]
  IC50: 381 nM
[6]
  Anticytostatic activity against tumor cells: showed anticytostatic activity
[6]; various cancer cells
  Anticancer activity IC50 in various cancer cells: within the nanomolar range
  IC50: 70.2 to 381 nM
[1]; DMDP 100 μM
  Decrease of activity after treatment with DMDP: 3 fold
[1]; DMDP 100 μM, listed as glucose-GA
  Effect of beta-glucosidase inhibitor DMDP on activity: completely abolished
[1]; with beta-glucosidase inhibitor DMDP (100 μM)
  Cell growth relative to untreated cells: about 60%
[1]; without DMDP
  Cell growth relative to untreated cells: about 20%
[7]
  Effect of beta-galactosidase treatment on activity: did not affect biological activity; also recorded: relatively unaffected
[7]; listed as glucose-GA
  Effect of beta-galactosidase treatment on activity: not affected

## COC1C=CC=C(C)C(=O)NC2=CC(=O)C(NCCOC3OC(CO)C(O)C(O)C3O)=C(CC(C)CC(OC)C(O)C(C)C=C(C)C1OC(N)=O)C2=O (stereo not drawn) [compound 25, 17-demethoxy-17-[(2-β-galactopyranosylethyl)amino]geldanamycin]
[3]; 72 hours
  IC50: > 14000 nM
[4]
  IC50: > 25000 nM
[5]
  IC50: > 23000 nM
[1]; DMDP 100 μM
  Effect of beta-glucosidase inhibitor DMDP on activity: did not affect; also recorded: relatively unaffected

## COC1C=CC=C(C)C(=O)NC2=CC(=O)C(NCCCOC3OC(CO)C(O)C(O)C3O)=C(CC(C)CC(OC)C(O)C(C)C=C(C)C1OC(N)=O)C2=O (centres unmarked) [compound 26]
[2]; 72 hours
  IC50: > 14000 nM
[3]; 72 hours
  IC50: > 6000 nM
[4]
  IC50: > 12000 nM
[5]
  IC50: > 14000 nM

## COC1C=CC=C(C)C(=O)NC2=CC(=O)C(NCCCCCOC3OC(CO)C(O)C(O)C3O)=C(CC(C)CC(OC)C(O)C(C)C=C(C)C1OC(N)=O)C2=O (centres unmarked) [compound 27]
[2]; 72 hours
  IC50: > 13000 nM
[3]; 72 hours
  IC50: > 13000 nM
[4]
  IC50: > 17000 nM
[5]
  IC50: > 19000 nM

## COC1C=CC=C(C)C(=O)NC2=CC(=O)C(NCCOCCOC3OC(CO)C(O)C(O)C3O)=C(CC(C)CC(OC)C(O)C(C)C=C(C)C1OC(N)=O)C2=O (stereo not drawn) [compound 28, 17-demethoxy-17-{[2-(2-β-galactopyranosylethyl)ethyl]amino}geldanamycin]
[2]; 72 hours
  IC50: > 11000 nM
[3]; 72 hours
  IC50: > 13000 nM
[4]
  IC50: > 22000 nM
[5]
  IC50: > 15000 nM

## COC1C=CC=C(C)C(=O)NC2=CC(=O)C(NCCOC3OC(CO)C(OC4OC(CO)C(O)C(O)C4O)C(O)C3O)=C(CC(C)CC(OC)C(O)C(C)C=C(C)C1OC(N)=O)C2=O (stereo not drawn) [compound 29, 17-demethoxy-17-[(2-β-lactopyranosylethyl)amino]geldanamycin]
[2]; 72 hours
  IC50: > 20000 nM
[3]; 72 hours
  IC50: > 25000 nM
[4]
  IC50: > 22000 nM
[5]
  IC50: > 25000 nM
